The source of these data is ChEMBL document CHEMBL3817727, “Fluorinated thiazolidinols cause cell death in A549 lung cancer cells via PI3K/AKT/mTOR and MAPK/ERK signalling pathways” (Medchemcomm, 2016).

The subject of one assay is MDA-MB-231. The assay is described as follows: Cytotoxicity against human MDA-MB-231 cells assessed as reduction in cell viability after 24 hrs by MTT assay. Type of assay: functional, cell-based. The settings on record: MDA-MB-231, 24 h.
In the next assay the test system is MCF7. The assay is described as follows: Cytotoxicity against human MCF7 cells assessed as reduction in cell viability after 24 hrs by MTT assay. Format: functional, cell-based. The settings on record: MCF7, 24 h. Background: Tetrazolium assays rely on reduction of a dye to a coloured formazan, in cell work by metabolically active cells.
Assay [1] has as its system A549. The assay is described as follows: Cell cycle arrest in human A549 cells assessed as accumulation at S phase at 10 uM after 24 hrs by propidium iodide staining based flow cytometry (reference value: 8.85%). Type of assay: functional. For orientation: In flow cytometry, cells or beads pass a laser one at a time.
Assay [2] has as its system A549. The assay is described as follows: Cell cycle arrest in human A549 cells assessed as accumulation at G0/G1 phase at 10 uM after 24 hrs by propidium iodide staining based flow cytometry (reference value: 69.5%). Type of assay: functional.
Assay [3] concerns A549. The assay is described as follows: Cell cycle arrest in human A549 cells assessed as accumulation at subG1 phase at 10 uM after 24 hrs by propidium iodide staining based flow cytometry (reference value: 1.11%). Type of assay: functional.
Assay [4] relates to A549. Description: Cell cycle arrest in human A549 cells assessed as accumulation at G2/M phase at 10 uM after 24 hrs by propidium iodide staining based flow cytometry (reference value: 21.58%). Format: functional.
Another assay has as its system HeLa. Description: Cytotoxicity against human HeLa cells assessed as reduction in cell viability after 24 hrs by MTT assay. Type of assay: functional, cell-based.
Assay [5] concerns A549. The assay is described as follows: Cytotoxicity against human A549 cells assessed as reduction in cell viability after 24 hrs by MTT assay. The settings on record: A549, 24 h. Type of assay: functional, cell-based.

Molecules are shown by their SMILES.

Take `O=c1cc(N2CCOCC2)oc2c(-c3ccccc3)cccc12` [LY-294002]: the IC50 in the assay with MDA-MB-231 worked out at 9.7 µM; with MCF7 it was 29.1 µM; in the assay with HeLa it was 20.5 µM; in the assay on A549 [5], 17.7 µM. Moreover, the Activity came out at 3.24% in the assay on A549 [1], 82.95% in the assay with A549 [2], 5.15% with A549 [3] and 9.24% in the assay with A549 [4].

By IC50 is commonly meant the midpoint of a concentration-inhibition curve.
